Measured values: patent US9096632B2, “Modulator of activity of adenylate cyclase” (Public University Corporation Yokohama City University, priority 2010, dated 2015)

Columns and labels:
[1] = molecular target: T1, adenylyl cyclase activity in the striatum (type 5 adenylyl cyclase) (Mus musculus, UniProt P84309); test: Membrane adenylyl cyclase assay, WT striatal membrane, forskolin-stimulated; type: biochemical; settings: 100 μM compound; 50 μM forskolin; WT striatal membrane; read-out: forskolin-stimulated adenylyl cyclase activity (relative to activity without inhibitor = 100)
T1 construct: IC50 on adenylyl cyclase activity in the striatum; other: WT; estimated from 10, 50 and 100 μM; other: 100 μM compound
T1 sequence (P84309 whole entry): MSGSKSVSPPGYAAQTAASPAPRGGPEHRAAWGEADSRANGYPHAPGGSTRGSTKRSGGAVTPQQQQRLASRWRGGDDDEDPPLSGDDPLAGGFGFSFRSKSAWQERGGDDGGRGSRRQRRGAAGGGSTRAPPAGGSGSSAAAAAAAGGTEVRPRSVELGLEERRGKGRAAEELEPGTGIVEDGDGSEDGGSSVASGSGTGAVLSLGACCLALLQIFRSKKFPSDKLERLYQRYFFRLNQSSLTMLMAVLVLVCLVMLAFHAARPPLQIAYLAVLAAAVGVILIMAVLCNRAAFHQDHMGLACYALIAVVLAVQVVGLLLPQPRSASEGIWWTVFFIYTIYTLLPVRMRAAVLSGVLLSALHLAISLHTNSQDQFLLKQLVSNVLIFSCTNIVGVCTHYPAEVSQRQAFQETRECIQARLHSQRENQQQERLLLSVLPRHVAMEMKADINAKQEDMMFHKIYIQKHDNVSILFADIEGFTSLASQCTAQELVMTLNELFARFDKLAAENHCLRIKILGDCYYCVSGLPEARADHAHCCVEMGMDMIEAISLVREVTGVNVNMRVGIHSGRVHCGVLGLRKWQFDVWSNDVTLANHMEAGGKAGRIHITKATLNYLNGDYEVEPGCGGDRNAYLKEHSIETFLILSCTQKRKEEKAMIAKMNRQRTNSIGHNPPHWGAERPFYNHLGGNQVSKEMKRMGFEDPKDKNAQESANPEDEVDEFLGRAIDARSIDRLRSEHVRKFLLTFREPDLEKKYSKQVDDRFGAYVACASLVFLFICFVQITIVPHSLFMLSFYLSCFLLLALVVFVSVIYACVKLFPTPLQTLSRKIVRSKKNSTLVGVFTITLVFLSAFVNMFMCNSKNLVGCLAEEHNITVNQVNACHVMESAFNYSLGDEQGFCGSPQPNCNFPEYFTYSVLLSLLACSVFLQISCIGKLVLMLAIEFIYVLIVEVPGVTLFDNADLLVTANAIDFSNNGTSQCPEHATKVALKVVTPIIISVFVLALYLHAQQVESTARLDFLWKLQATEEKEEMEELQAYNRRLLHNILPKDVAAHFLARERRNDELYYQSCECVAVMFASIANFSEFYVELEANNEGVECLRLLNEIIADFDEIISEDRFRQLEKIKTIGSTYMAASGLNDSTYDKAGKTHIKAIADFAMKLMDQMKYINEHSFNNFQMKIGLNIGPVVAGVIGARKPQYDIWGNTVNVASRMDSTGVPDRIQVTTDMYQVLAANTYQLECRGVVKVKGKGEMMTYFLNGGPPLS
Protocol: FIG. 2 Inhibitory effects of various compounds on adenylyl cyclase activity in mouse striatum. The striatum is part of the brain. Here, it is known that type 5 adenylyl cyclase occupies almost all of the enzyme activity. […] Relative values are shown with adenylyl cyclase activity in the presence of 50 μM forskolin but in the absence of inhibitors being taken as 100 (n=4, means±S.E.).
<Membrane Adenylyl Cyclase Assay>
Striatal, cardiac and pulmonary tissues were removed from WT (C57BL) (Charles River Laboratories Japan, Inc.) and AC5KO (Circ. Res. 93: 364-371, 2003), both of which were 12-15 weeks of age after birth, and individual membrane protein fractions were prepared therefrom. The resultant membrane preparations were incubated with a reaction mixture (20 mM HEPES, pH 8, 5 mM MgCl2, 0.5 mM EDTA, pH 8, 0.1 mM ATP, 1 mM phospho creatine, 8 U/mL creatine phosphor kinase, 200 μM IBMX) at 30° C. in the presence of forskolin (an activator of adenylyl cyclase) (50 μM, Sigma Cat. No. F6886) and various compounds, to thereby allow production of cAMP. In this assay, striatum- or lung-derived membrane preparations were used in an amount of 1 μg, and heart-derived membrane preparation was used in an amount of 2 μg. 15 minutes (striatum and lung) or 30 minutes (heart) after its start, the reaction was terminated by adding trichloroacetate (TCA) solution to give a final concentration of 5%. Then, the protein was precipitated by centrifugation (13,500×g, 10 min).
In both membrane adenylyl cyclase assay and cAMP accumulation assay, the amount of cAMP contained in TCA solution was determined by radioimmunoassay using […].

[2] = test system: pacing-induced atrial fibrillation; test: Antiarrhythmic action: pacing-induced transient atrial fibrillation; type: in vivo, mouse; settings: vidarabine 15 mg/kg/day, V2E, V3E, V5E 19.8 mg/kg/day, osmotic mini-pump; vs DMSO alone
Protocol: FIG. 14 Antiarrhythmic (atrial fibrillation inhibition) action. To healthy wild type mice (C57BL/6N), vidarabine (15 mg/kg/day), V2E, V3E or V5E (19.8 mg/kg/day) (all of which are dissolved in DMSO) or DMSO alone was administered with an osmotic mini-pump (Alzet 2001). Subsequently, voltage stimuli of 2.5 mA were applied to the mice for 60 seconds at intervals of 30 milliseconds with a transesophageal catheter (atrial tachypacing; Circ Res 97, 62-69, 2005) to induce transient atrial fibrillation. The duration of atrial fibration until the induced transient atrial fibrillation converted to a normal sinus rhythm was measured (n=4-8, means±SE).
After mice were inhalationally anesthetized with isoflurane, an electrode catheter (Millar: Model EPR800; size 1.1 F; length 4.5 cm) connected to an electrocardiogram amp for the purpose of recording intracardiac electrocardiogram was slowly inserted through the oral cavity into the esophagus, and fixed at a site where maximum P wave was recorded. The thus fixed electrode catheter was connected to an electrostimulator carefully enough to avoid any movement of its position. Thereafter, body surface electrogram was recorded by II lead. Subsequently, voltage stimuli of 2.5 mA were applied to mice for 60 seconds at intervals of 30 milliseconds to thereby induce transient atrial fibrillation. The time period during which the following phenomena can be confirmed from body surface electrogram was regarded as the duration of atrial P wave disappears from the baseline and the R-R intervals are not regular but produce arrhythmic pulse.
To healthy WT (C57BL/6N), each of vidarabine (15 mg/kg/day), V2E, V3E and V5E (19.8 mg/kg/day) (all of which were dissolved in DMSO) or DMSO alone was administered with an osmotic mini-pump (Alzet 2001). Subsequently, atrial fibrillation was induced under the above-described conditions, and the duration of atrial fibrillation until the induced atrial fibrillation converted to a normal sinus rhythm was measured (FIG. 14). This experiment was completed after confirming that the normal sinus rhythm was lasting for at least 5 minutes and that there was no recurrence of atrial fibrillation. For information, the maximum dose of vidarabine approved for use in the treatment of herpes in humans is 15 mg/kg/day for 10 days.

[3] = Toxicity test (blood BUN, creatinine, GPT, GOT); type: in vivo, mouse; settings: 15 mg/kg/day for 7 days, osmotic mini-pump
Protocol: FIG. 11 Toxicity test. Vidarabine, V2E, V3E and V5E were administered individually with an osmotic mini-pump (15 mg/kg/day for 7 days). Then, blood samples were taken and subjected to BUN, creatinine, GPT and GOT measurements. The results were compared with the results from a control group.
Vidarabine, V2E, V3E and V5E were administered individually to WT (C57BL/6N; Nippon SLC) with an osmotic mini-pump (15 mg/kg/day for 7 days). Then, blood samples were taken and subjected to BUN, creatinine, OPT and GOT measurements. The results were compared with the results from control group.

[4] = test system: rat embryo cultured cardiac myocytes; test: TUNEL staining of cardiac myocytes (isoproterenol-induced apoptosis); type: cell-based; settings: 10^−5 M compound with isoproterenol 10^−5 M, 48 hours
Protocol: FIG. 10 TUNEL staining of cardiac myocytes. To a culture both of neonatal rat cardiac myocytes, isoproterenol (10^−5 M) either alone or in combination with vidarabine, V2E, V3E or VSE was added for stimulation (48 hours). Then, apoptosis positive cells were evaluated by TUNEL staining.
<TUNEL Staining of Cardiac Myocytes>
A culture broth of rat embryo cultured cardiac myocytes (pregnant Wistar rats were purchased from Nippon SLC) was stimulated (48 hours) with isoproterenol (10^−5 M) either alone or in combination with vidarabine, V2E, V3E or V5E (10^−5 M). Then, apoptosis positive cells were evaluated by TUNEL staining.

[5] = test system: cardiac function (LVEF) of isoproterenol-loaded mice; test: Chronic catecholamine loading experiment (isoproterenol heart failure model); type: in vivo, mouse; settings: 15 mg/kg/day for 7 days, osmotic mini-pump, with isoproterenol 60 mg/kg/day; C57BL/6N
Protocol: FIG. 9 Prophylactic effects on heart failure. Isoproterenol alone (60 mg/kg/day for 7 days) was administered to wild-type mice (C57BL/6N) for one week with an osmotic mini-pump (Alzet2001) (ISO). Other WT received isoproterenol with vidarabine, V2E, V3E or V5E (15 mg/kg/day for 7 days).
<Chronic Catecholamine Loading Experiment>
An osmotic mini-pump filled with isoproterenol was hypodermically implanted in mice, and isoproterenol was administered for 1 week continuously in a sustained-release manner (60 mg/kg). The cardiac function of mice (EF, ejection fraction) was measured by cardiac ultrasonography, and values before and after isoproterenol administration were compared. It is generally known that when isoproterenol is administered to mice with a mini-pump, their cardiac function (EF) decreases (i.e., they manifest heart failure).
Isoproterenol alone (60 mg/kg/day for 7 days) was administered to WT (C57BL/6N) for 1 week with an osmotic mini-pump (Alzet 2001). Other WT received isoproterenol and, at the same time, vidarabine, V2E, V3E or V5E (15 mg/kg/day for 7 days).

CN(C)CC(=O)OC1C(O)C(CO)OC1n1cnc2c(N)ncnc21 (stereo not shown) [V2E, 2-O—(N,N-Dimethylglycyl)Vidarabine]
activity at 100 µM [1]: ~24.5%
time for pacing-induced atrial fibrillation to convert to a normal sinus rhythm [2]: significantly shortened
BUN compared with control group [3]: No significant increase
GOT compared with control group [3]: No significant increase
OPT compared with control group [3]: No significant increase
creatinine compared with control group [3]: No significant increase
inhibitory effect on isoproterenol stimulation-induced apoptosis (TUNEL positive cells) [4]: comparable to the effect of vidarabine
inhibition of the isoproterenol-induced decrease of cardiac function (LVEF) [5]: comparable to that of vidarabine

CN(C)CC(=O)OC1C(CO)OC(n2cnc3c(N)ncnc32)C1O (stereo not shown) [V3E, 3-O—(N,N-Dimethylglycyl)Vidarabine]
activity at 100 µM [1]: ~25.1%
time for pacing-induced atrial fibrillation to convert to a normal sinus rhythm [2]: significantly shortened
BUN compared with control group [3]: No significant increase
GOT compared with control group [3]: No significant increase
OPT compared with control group [3]: No significant increase
creatinine compared with control group [3]: No significant increase
inhibitory effect on isoproterenol stimulation-induced apoptosis (TUNEL positive cells) [4]: comparable to the effect of vidarabine
inhibition of the isoproterenol-induced decrease of cardiac function (LVEF) [5]: comparable to that of vidarabine

CN(C)CC(=O)OCC1OC(n2cnc3c(N)ncnc32)C(O)C1O (stereo not shown) [V5E, 5-O—(N,N-Dimethylglycyl)Vidarabine]
activity at 100 µM [1]: ~24.9%
time for pacing-induced atrial fibrillation to convert to a normal sinus rhythm [2]: significantly shortened
BUN compared with control group [3]: No significant increase
GOT compared with control group [3]: No significant increase
OPT compared with control group [3]: No significant increase
creatinine compared with control group [3]: No significant increase
inhibitory effect on isoproterenol stimulation-induced apoptosis (TUNEL positive cells) [4]: comparable to the effect of vidarabine
inhibition of the isoproterenol-induced decrease of cardiac function (LVEF) [5]: comparable to that of vidarabine

Nc1ncnc2c1ncn2[C@@H]1O[C@H](CO)[C@@H](O)[C@@H]1O [vidarabine, reference compound]
activity at 100 µM [1]: ~17.3%
time for pacing-induced atrial fibrillation to convert to a normal sinus rhythm [2]: significantly shortened
BUN compared with control group [3]: No significant increase
GOT compared with control group [3]: No significant increase
OPT compared with control group [3]: No significant increase
creatinine compared with control group [3]: No significant increase
inhibition of the isoproterenol-induced decrease of cardiac function (LVEF) [5]: significantly inhibited
